According to patent US11339150B2, “Benzimidazole compounds as HDAC6 inhibitors” (OnKure, Inc., priority 2019, dated 2022):

What was measured:
HDAC6 = molecular target: T1, HDAC6 (Homo sapiens, UniProt Q9UBN7); test: HDAC assay (fluorogenic substrate), HDAC6; assay type: biochemical
T1 sequence (Q9UBN7 1-1215): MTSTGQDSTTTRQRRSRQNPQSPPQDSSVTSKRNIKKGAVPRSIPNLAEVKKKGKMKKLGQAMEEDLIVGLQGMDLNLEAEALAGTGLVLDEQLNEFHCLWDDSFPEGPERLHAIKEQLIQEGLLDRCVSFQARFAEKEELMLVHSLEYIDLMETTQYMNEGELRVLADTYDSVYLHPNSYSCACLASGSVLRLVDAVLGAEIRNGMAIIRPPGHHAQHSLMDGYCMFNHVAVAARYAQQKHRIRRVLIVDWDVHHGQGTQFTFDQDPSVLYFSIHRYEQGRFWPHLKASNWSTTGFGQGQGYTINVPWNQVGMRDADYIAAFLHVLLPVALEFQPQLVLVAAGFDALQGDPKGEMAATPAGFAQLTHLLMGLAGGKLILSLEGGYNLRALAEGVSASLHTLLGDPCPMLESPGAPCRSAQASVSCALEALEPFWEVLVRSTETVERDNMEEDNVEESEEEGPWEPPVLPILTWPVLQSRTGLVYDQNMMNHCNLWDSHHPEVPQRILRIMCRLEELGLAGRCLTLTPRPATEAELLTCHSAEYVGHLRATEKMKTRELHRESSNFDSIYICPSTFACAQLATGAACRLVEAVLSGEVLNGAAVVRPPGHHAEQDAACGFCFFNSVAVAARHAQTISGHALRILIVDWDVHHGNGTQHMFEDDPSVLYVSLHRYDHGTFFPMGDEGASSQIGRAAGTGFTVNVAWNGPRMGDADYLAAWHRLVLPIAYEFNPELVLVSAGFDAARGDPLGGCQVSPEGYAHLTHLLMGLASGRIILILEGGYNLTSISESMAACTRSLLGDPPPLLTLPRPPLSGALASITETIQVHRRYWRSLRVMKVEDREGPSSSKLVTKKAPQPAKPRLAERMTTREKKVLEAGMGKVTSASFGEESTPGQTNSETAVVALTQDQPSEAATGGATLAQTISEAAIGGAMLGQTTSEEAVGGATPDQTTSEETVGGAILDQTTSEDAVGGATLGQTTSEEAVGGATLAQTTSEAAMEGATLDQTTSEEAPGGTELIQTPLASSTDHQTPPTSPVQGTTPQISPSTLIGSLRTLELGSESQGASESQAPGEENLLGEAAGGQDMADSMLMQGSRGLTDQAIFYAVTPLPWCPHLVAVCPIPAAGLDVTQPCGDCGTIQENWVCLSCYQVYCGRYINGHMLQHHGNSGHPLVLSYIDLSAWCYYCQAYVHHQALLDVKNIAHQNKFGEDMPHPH
Description: Base Reaction buffer: 50 mM Tris-HCl, pH8.0, 137 mM NaCl, 2.7 mM KCl, and 1 mM MgCl2. Add fresh: 1 mg/ml BSA, 1% DMSO
Fluorogenic HDAC General Substrate: 50 μM, Arg-His-Lys-Lys(Ac)
• 1. Deliver 2× enzyme in wells of reaction plate except No Enzyme control wells. Add buffer in No En wells. • 2. Deliver compounds in 100% DMSO into the enzyme mixture by Acoustic technology (Echo550; nanoliter range). Spin down and pre-incubation. • 3. Deliver 2× Substrate Mixture (Fluorogenic HDAC Substrate and co-factor if applicable) in all reaction wells to initiate the reaction. Spin and shake. • 4. Incubate for 30 min for Class 2A, 1 hr for HDAC1, 2, 3, and 6, and 2 hr for the rest of HDACs and SIRTs at 30° C. with seal. Development Step: • 5. Add Developer with Trichostatin A (or Nicotinamide for SIRTs) to stop the reaction and to generate fluorescent color. • 6. Kinetic measurement for 1.5 hr with Envision with 15 min interval. (Ex/Em=360/460 nm) • 7. Take endpoint reading for analysis after the development reaches plateau.

[1] = test system: Tubulin deacetylation in U266B1 human myeloma cell line; test: Tubulin deacetylation inhibition in U266B1 cells; assay type: cell-based; settings: Cell Type U266B1
Description: Tubulin Deacetylation Inhibition
Example 1 was dissolved with DMSO at 10 mM stock. Reference compound TSA was dissolved with DMSO at 10 mM stock. U266B1 human myeloma cell line was purchased from American Type Culture Collection (Manassas, Va.). U266B1 cells were grown in RPMI medium and supplemented with 15% heat-inactivated fetal bovine serum (FBS), 100 μg/ml penicillin, and 100 μg/ml streptomycin. Cultures were maintained at 37° C. in a humidified atmosphere of 5% CO2 and 95% air. 12% Bis-Tris gel and nitrocellulose membrane were purchased from Thermo Fisher. Anti-acetylated-Tubulin antibody (Catalogue #T7451) was purchased from Sigma-Aldrich. Anti-α-Tubulin antibody (Catalogue #sc-12462-R) antibody was purchased from Santa Cruz Biotechnology. Anti-Acetylated Histone H3 (K9) (Catalogue #9649) and anti-Histone H3 (Catalogue #3638) antibodies were purchased from Cell Signaling Technology. Anti-rabbit IgG IRDye 680RD or anti-mouse IgG IRDye 800CW secondary antibodies were purchased from LI-COR.

Row | Compound | inhibition at 10 µM (HDAC6) | IC50 [1]
1 | O=S(=O)(NCC1CC1)c1cc(Nc2ncc(-c3nnc(C(F)F)o3)cn2)cc2c1ncn2CCO [Example 26, N-(cyclopropylmethyl)-6-((5-(5-(difluoromethyl)-1,3,4-oxadiazol-2-yl)pyrimidin-2-yl)amino)-1-(2-hydroxyethyl)-1H-benzo[d]imidazole-4-sulfonamide] | > 90% | –
2 | CNC(=O)n1cnc2c(-c3ccccc3)cc(Nc3ncc(-c4nnc(C(F)F)o4)cn3)cc21 [Example 28, 6-((5-(5-(difluoromethyl)-1,3,4-oxadiazol-2-yl)pyrimidin-2-yl)amino)-N-methyl-4-phenyl-1H-benzo[d]imidazole-1-carboxamide] | > 90% | –
3 | CC(CO)n1cnc2c(-c3ccccc3)cc(Nc3ncc(-c4nnc(C(F)F)o4)cn3)cc21 (stereo not drawn) [Example 29, 2-(6-((5-(5-(difluoromethyl)-1,3,4-oxadiazol-2-yl)pyrimidin-2-yl)amino)-4-phenyl-1H-benzo[d]imidazol-1-yl)propan-1-ol] | > 90% | –
4 | Cc1nc2c(-c3ccccc3)cc(Nc3ncc(-c4nnc(C(F)F)o4)cn3)cc2n1CCO [Example 30, 2-(6-((5-(5-(difluoromethyl)-1,3,4-oxadiazol-2-yl)pyrimidin-2-yl)amino)-2-methyl-4-phenyl-1H-benzo[d]imidazol-1-yl)ethan-1-ol] | > 90% | –
5 | OCCn1cnc2c(-c3ccc(F)cc3F)cc(Nc3ncc(-c4nnc(C(F)F)o4)cn3)cc21 [Example 32, 2-(6-((5-(5-(difluoromethyl)-1,3,4-oxadiazol-2-yl)pyrimidin-2-yl)amino)-4-(2,4-difluorophenyl)-1H-benzo[d]imidazol-1-yl)ethan-1-ol] | > 90% | –
6 | OCCn1cnc2c(-c3ccc(F)cc3C(F)(F)F)cc(Nc3ncc(-c4nnc(C(F)F)o4)cn3)cc21 [Example 33, 2-(6-((5-(5-(difluoromethyl)-1,3,4-oxadiazol-2-yl)pyrimidin-2-yl)amino)-4-(4-fluoro-2-(trifluoromethyl)phenyl)-1H-benzo[d]imidazol-1-yl)ethan-1-ol] | > 90% | –
7 | CC(C)(C)c1cc(Nc2ncc(-c3nnc(C(F)F)o3)cn2)cc2c1ncn2CCO [Example 34, 2-(4-(tert-butyl)-6-((5-(5-(difluoromethyl)-1,3,4-oxadiazol-2-yl)pyrimidin-2-yl)amino)-1H-benzo[d]imidazol-1-yl)ethan-1-ol] | > 90% | –
8 | FC(F)c1nnc(-c2cnc(Nc3cc(-c4ccncc4)c4nc[nH]c4c3)nc2)o1 [Example 35, N-(5-(5-(difluoromethyl)-1,3,4-oxadiazol-2-yl)pyrimidin-2-yl)-4-(pyridin-4-yl)-1H-benzo[d]imidazol-6-amine] | > 90% | –
9 | FC(F)c1nnc(-c2cnc(Nc3cc(-c4ccn[nH]4)c4nc[nH]c4c3)nc2)o1 [Example 36, N-(5-(5-(difluoromethyl)-1,3,4-oxadiazol-2-yl)pyrimidin-2-yl)-4-(1H-pyrazol-5-yl)-1H-benzo[d]imidazol-6-amine] | > 90% | –
10 | OCCn1cnc2c(-c3ccn[nH]3)cc(Nc3ncc(-c4nnc(C(F)F)o4)cn3)cc21 [Example 37, 2-(6-((5-(5-(difluoromethyl)-1,3,4-oxadiazol-2-yl)pyrimidin-2-yl)amino)-4-(1H-pyrazol-5-yl)-1H-benzo[d]imidazol-1-yl)ethan-1-ol] | > 90% | –
11 | Fc1c(Nc2ncc(-c3nnc(C(F)F)o3)cn2)cc2[nH]cnc2c1-c1ccccc1 [Example 38, N-(5-(5-(difluoromethyl)-1,3,4-oxadiazol-2-yl)pyrimidin-2-yl)-5-fluoro-4-phenyl-1H-benzo[d]imidazol-6-amine] | > 90% | –
12 | Fc1c(Nc2ncc(-c3nnc(C(F)F)o3)cn2)cc(-c2ccccc2)c2nc[nH]c12 [Example 39, N-(5-(5-(difluoromethyl)-1,3,4-oxadiazol-2-yl)pyrimidin-2-yl)-7-fluoro-4-phenyl-1H-benzo[d]imidazol-6-amine] | > 90% | –
13 | Cn1nccc1-c1cc(Nc2ncc(-c3nnc(C(F)F)o3)cn2)cc2[nH]cnc12 [Example 40, N-(5-(5-(difluoromethyl)-1,3,4-oxadiazol-2-yl)pyrimidin-2-yl)-4-(1-methyl-1H-pyrazol-5-yl)-1H-benzo[d]imidazol-6-amine] | > 90% | –
14 | OCCn1c(C(F)(F)F)nc2c(-c3ccccc3)cc(Nc3ncc(-c4nnc(C(F)F)o4)cn3)cc21 [Example 41, 2-(6-((5-(5-(difluoromethyl)-1,3,4-oxadiazol-2-yl)pyrimidin-2-yl)amino)-4-phenyl-2-(trifluoromethyl)-1H-benzo[d]imidazol-1-yl)ethan-1-ol] | > 90% | –
15 | Fc1cc(I)ccc1-c1cc(Nc2ncc(-c3nnc(C(F)F)o3)cn2)cc2[nH]cnc12 [Example 42, N-(5-(5-(difluoromethyl)-1,3,4-oxadiazol-2-yl)pyrimidin-2-yl)-4-(2-fluoro-4-iodophenyl)-1H-benzo[d]imidazol-6-amine] | > 90% | –
16 | FC(F)c1nnc(-c2cnc(Nc3cc(-c4cn[nH]c4)c4nc[nH]c4c3)nc2)o1 [Example 44, N-(5-(5-(difluoromethyl)-1,3,4-oxadiazol-2-yl)pyrimidin-2-yl)-4-(1H-pyrazol-4-yl)-1H-benzo[d]imidazol-6-amine] | > 90% | –
17 | Fc1ccc(Cl)cc1-c1cc(Nc2ncc(-c3nnc(C(F)F)o3)cn2)cc2[nH]cnc12 [Example 45, 4-(5-chloro-2-fluorophenyl)-N-(5-(5-(difluoromethyl)-1,3,4-oxadiazol-2-yl)pyrimidin-2-yl)-1H-benzo[d]imidazol-6-amine] | > 90% | –
18 | OCCn1cnc2c(-c3cn[nH]c3)cc(Nc3ncc(-c4nnc(C(F)F)o4)cn3)cc21 [Example 46, 2-(6-((5-(5-(difluoromethyl)-1,3,4-oxadiazol-2-yl)pyrimidin-2-yl)amino)-4-(1H-pyrazol-4-yl)-1H-benzo[d]imidazol-1-yl)ethan-1-ol] | > 90% | –
19 | C#CCn1cnc2c(-c3ccccc3)cc(Nc3ncc(-c4nnc(C(F)F)o4)cn3)cc21 [Example 47] | > 90% | –
20 | FC(F)c1nnc(-c2cnc(Nc3cc(-c4ccccc4)c4ncn(CC(F)(F)F)c4c3)nc2)o1 [Example 48, N-(5-(5-(difluoromethyl)-1,3,4-oxadiazol-2-yl)pyrimidin-2-yl)-4-phenyl-1-(2,2,2-trifluoroethyl)-1H-benzo[d]imidazol-6-amine] | > 90% | –
21 | CC(/C=C/C(=O)NO)=C\[C@@H](C)C(=O)c1ccc(N(C)C)cc1 [Trichostatin, reference compound] | – | 750 nM
